Test results: ChEMBL document CHEMBL1126396 (Bioorg Med Chem Lett, 1992)

Tests used:
[1] = molecular target: Somatostatin receptor; assay: Radioligand binding studies on rat cortex membranes using 125 I-Tyrs-octreotide as ligand was determined
[2] = molecular target: Somatostatin receptor; assay: Inhibitory activity against Somatostatin receptor in rat cortex membrane using 125 I-Tyrs-octreotide as radioligand; format: cell membranes

Compound: NCCCCCOCC1OC(OCCc2c[nH]c3ccccc23)C(OCc2ccccc2)C1OCc1ccccc1 (configuration not stated)
- IC50 [1]: 23 µM
- Log Ki [2]: -4.73
